From PubChem BioAssay (NCI)
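96-well plates; 48 h exposure; 5 concentrations. Endpoints by linear interpolation between flanking doses. Not reached: highest tested concentration assigned. TGI: concentration producing complete growth inhibition.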

Tests used:
Assay in all cases: growth of human tumour cells (NCI), 48 h
786-0 renal = test system: 786-0 renal
A549 NSCLC = test system: A549 NSCLC
ACHN renal = test system: ACHN renal
CAKI-1 renal = test system: CAKI-1 renal
CCRF-CEM leukemia = test system: CCRF-CEM leukemia
COLO 205 colon = test system: COLO 205 colon
DU-145 prostate = test system: DU-145 prostate
EKVX NSCLC = test system: EKVX NSCLC
HCT-116 colon = test system: HCT-116 colon
HCT-15 colon = test system: HCT-15 colon
HL-60(TB) leukemia = test system: HL-60(TB) leukemia
HOP-62 NSCLC = test system: HOP-62 NSCLC
HOP-92 NSCLC = test system: HOP-92 NSCLC
HS 578T breast = test system: HS 578T breast
HT29 colon = test system: HT29 colon
IGROV1 ovarian = test system: IGROV1 ovarian
K-562 leukemia = test system: K-562 leukemia
KM12 colon = test system: KM12 colon
LOX IMVI melanoma = test system: LOX IMVI melanoma
M14 melanoma = test system: M14 melanoma
MALME-3M melanoma = test system: MALME-3M melanoma
MCF7 breast = test system: MCF7 breast
MDA-MB-231 breast = test system: MDA-MB-231 breast
MDA-MB-435 = test system: MDA-MB-435
MDA-N = test system: MDA-N
MOLT-4 leukemia = test system: MOLT-4 leukemia
NCI-H226 lung = test system: NCI-H226 lung
NCI-H23 lung = test system: NCI-H23 lung
NCI-H460 lung = test system: NCI-H460 lung
NCI-H522 lung = test system: NCI-H522 lung
NCI/ADR-RES ovarian = test system: NCI/ADR-RES ovarian
OVCAR-3 ovarian = test system: OVCAR-3 ovarian
OVCAR-4 ovarian = test system: OVCAR-4 ovarian
OVCAR-5 ovarian = test system: OVCAR-5 ovarian
OVCAR-8 ovarian = test system: OVCAR-8 ovarian
PC-3 prostate = test system: PC-3 prostate
RPMI-8226 leukemia = test system: RPMI-8226 leukemia
RXF 393 renal = test system: RXF 393 renal
SF-268 CNS = test system: SF-268 CNS
SF-295 CNS = test system: SF-295 CNS
SF-539 CNS = test system: SF-539 CNS
SK-MEL-2 melanoma = test system: SK-MEL-2 melanoma
SK-MEL-28 melanoma = test system: SK-MEL-28 melanoma
SK-MEL-5 melanoma = test system: SK-MEL-5 melanoma
SK-OV-3 ovarian = test system: SK-OV-3 ovarian
SN12C renal = test system: SN12C renal
SNB-19 CNS = test system: SNB-19 CNS
SNB-75 CNS = test system: SNB-75 CNS
SR leukemia = test system: SR leukemia
SW-620 colon = test system: SW-620 colon
TK-10 renal = test system: TK-10 renal
U251 CNS = test system: U251 CNS
UACC-257 melanoma = test system: UACC-257 melanoma
UACC-62 melanoma = test system: UACC-62 melanoma
UO-31 renal = test system: UO-31 renal

Structure (SMILES): CN(NC(=O)/C(=C/c1ccc(Cl)cc1)NC(=O)c1ccccc1)c1cn[nH]c(=O)c1Cl
- TGI (786-0 renal): > 100 µM
- TGI (A549 NSCLC): > 100 µM
- TGI (ACHN renal): > 100 µM
- TGI (CAKI-1 renal): > 100 µM
- TGI (CCRF-CEM leukemia): > 100 µM
- TGI (COLO 205 colon): > 100 µM
- TGI (DU-145 prostate): > 100 µM
- TGI (EKVX NSCLC): > 100 µM
- TGI (HCT-116 colon): > 100 µM
- TGI (HCT-15 colon): > 100 µM
- TGI (HL-60(TB) leukemia): 41.6 µM
- TGI (HOP-62 NSCLC): > 100 µM
- TGI (HOP-92 NSCLC): > 100 µM
- TGI (HS 578T breast): > 100 µM
- TGI (HT29 colon): > 100 µM
- TGI (IGROV1 ovarian): > 100 µM
- TGI (K-562 leukemia): > 100 µM
- TGI (KM12 colon): > 100 µM
- TGI (LOX IMVI melanoma): > 100 µM
- TGI (M14 melanoma): > 100 µM
- TGI (MALME-3M melanoma): > 100 µM
- TGI (MCF7 breast): > 100 µM
- TGI (MDA-MB-231 breast): > 100 µM
- TGI (MDA-MB-435): > 100 µM
- TGI (MDA-N): > 100 µM
- TGI (MOLT-4 leukemia): 84.2 µM
- TGI (NCI-H226 lung): > 100 µM
- TGI (NCI-H23 lung): > 100 µM
- TGI (NCI-H460 lung): > 100 µM
- TGI (NCI-H522 lung): 56.6 µM
- TGI (NCI/ADR-RES ovarian): > 100 µM
- TGI (OVCAR-3 ovarian): > 100 µM
- TGI (OVCAR-4 ovarian): > 100 µM
- TGI (OVCAR-5 ovarian): > 100 µM
- TGI (OVCAR-8 ovarian): > 100 µM
- TGI (PC-3 prostate): > 100 µM
- TGI (RPMI-8226 leukemia): 53.5 µM
- TGI (RXF 393 renal): > 100 µM
- TGI (SF-268 CNS): > 100 µM
- TGI (SF-295 CNS): > 100 µM
- TGI (SF-539 CNS): > 100 µM
- TGI (SK-MEL-2 melanoma): > 100 µM
- TGI (SK-MEL-28 melanoma): > 100 µM
- TGI (SK-MEL-5 melanoma): > 100 µM
- TGI (SK-OV-3 ovarian): > 100 µM
- TGI (SN12C renal): > 100 µM
- TGI (SNB-19 CNS): > 100 µM
- TGI (SNB-75 CNS): > 100 µM
- TGI (SR leukemia): > 100 µM
- TGI (SW-620 colon): > 100 µM
- TGI (TK-10 renal): > 100 µM
- TGI (U251 CNS): > 100 µM
- TGI (UACC-257 melanoma): > 100 µM
- TGI (UACC-62 melanoma): > 100 µM
- TGI (UO-31 renal): > 100 µM
